# Measurements reported in PubChem BioAssay (NCI).
#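 Following 48 hours of exposure in 96-well plates, responses at five concentrations were used to interpolate endpoints linearly. TGI denotes the concentration required for complete inhibition of growth.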
# How the values were obtained:
# Experiment in all cases: NCI anticancer screen, dose series, 48 h
# CAKI-1 renal = tested on: CAKI-1 renal
# SF-539 CNS = tested on: SF-539 CNS
# SK-MEL-28 melanoma = tested on: SK-MEL-28 melanoma
# SF-268 CNS = tested on: SF-268 CNS
# HCT-15 colon = tested on: HCT-15 colon
# 786-0 renal = tested on: 786-0 renal
# EKVX NSCLC = tested on: EKVX NSCLC
# K-562 leukemia = tested on: K-562 leukemia
# SW-620 colon = tested on: SW-620 colon
# U251 CNS = tested on: U251 CNS
# NCI-H23 lung = tested on: NCI-H23 lung
# MCF7 breast = tested on: MCF7 breast
# KM12 colon = tested on: KM12 colon
# NCI-H460 lung = tested on: NCI-H460 lung
# OVCAR-5 ovarian = tested on: OVCAR-5 ovarian
# SNB-19 CNS = tested on: SNB-19 CNS
# SN12C renal = tested on: SN12C renal
# NCI-H522 lung = tested on: NCI-H522 lung
# RXF 393 renal = tested on: RXF 393 renal
# ACHN renal = tested on: ACHN renal
# MDA-MB-435 = tested on: MDA-MB-435
# NCI/ADR-RES ovarian = tested on: NCI/ADR-RES ovarian
# UO-31 renal = tested on: UO-31 renal
# HT29 colon = tested on: HT29 colon
# CCRF-CEM leukemia = tested on: CCRF-CEM leukemia
# MALME-3M melanoma = tested on: MALME-3M melanoma
# HS 578T breast = tested on: HS 578T breast
# A498 renal = tested on: A498 renal
# NCI-H226 lung = tested on: NCI-H226 lung
# SK-OV-3 ovarian = tested on: SK-OV-3 ovarian
# SK-MEL-5 melanoma = tested on: SK-MEL-5 melanoma
# HCC-2998 colon = tested on: HCC-2998 colon
# HOP-62 NSCLC = tested on: HOP-62 NSCLC
# UACC-62 melanoma = tested on: UACC-62 melanoma
# OVCAR-4 ovarian = tested on: OVCAR-4 ovarian
# OVCAR-8 ovarian = tested on: OVCAR-8 ovarian
# HOP-92 NSCLC = tested on: HOP-92 NSCLC
# COLO 205 colon = tested on: COLO 205 colon
# TK-10 renal = tested on: TK-10 renal
# PC-3 prostate = tested on: PC-3 prostate
# SR leukemia = tested on: SR leukemia
# MDA-N = tested on: MDA-N
# A549 NSCLC = tested on: A549 NSCLC
# BT-549 breast = tested on: BT-549 breast
# T-47D breast = tested on: T-47D breast
# HCT-116 colon = tested on: HCT-116 colon
# OVCAR-3 ovarian = tested on: OVCAR-3 ovarian
# DU-145 prostate = tested on: DU-145 prostate
# IGROV1 ovarian = tested on: IGROV1 ovarian
# UACC-257 melanoma = tested on: UACC-257 melanoma
# MOLT-4 leukemia = tested on: MOLT-4 leukemia
# SF-295 CNS = tested on: SF-295 CNS
# SK-MEL-2 melanoma = tested on: SK-MEL-2 melanoma
# SNB-75 CNS = tested on: SNB-75 CNS
# RPMI-8226 leukemia = tested on: RPMI-8226 leukemia
# MDA-MB-231 breast = tested on: MDA-MB-231 breast
# M14 melanoma = tested on: M14 melanoma
smiles,measurement,setting,value
COc1cc(C(=O)/C=C/c2ccc(OCC#N)cc2)cc(OC)c1OC,TGI,CAKI-1 renal,69.6 µM
same,TGI,SF-539 CNS,33.2 µM
same,TGI,SK-MEL-28 melanoma,32 µM
same,TGI,SF-268 CNS,> 100 µM
same,TGI,HCT-15 colon,40.3 µM
same,TGI,786-0 renal,37.9 µM
same,TGI,EKVX NSCLC,> 100 µM
same,TGI,K-562 leukemia,86.9 µM
same,TGI,SW-620 colon,37.3 µM
same,TGI,U251 CNS,33.4 µM
same,TGI,NCI-H23 lung,43.2 µM
same,TGI,MCF7 breast,23.3 µM
same,TGI,KM12 colon,32 µM
same,TGI,NCI-H460 lung,80.9 µM
same,TGI,OVCAR-5 ovarian,> 100 µM
same,TGI,SNB-19 CNS,54.4 µM
same,TGI,SN12C renal,36.3 µM
same,TGI,NCI-H522 lung,35.9 µM
same,TGI,RXF 393 renal,34.1 µM
same,TGI,ACHN renal,51.8 µM
same,TGI,MDA-MB-435,40.2 µM
same,TGI,NCI/ADR-RES ovarian,48.3 µM
same,TGI,UO-31 renal,31.4 µM
same,TGI,HT29 colon,> 100 µM
same,TGI,CCRF-CEM leukemia,65.1 µM
same,TGI,MALME-3M melanoma,33 µM
same,TGI,HS 578T breast,> 100 µM
same,TGI,A498 renal,65.9 µM
same,TGI,NCI-H226 lung,58.5 µM
same,TGI,SK-OV-3 ovarian,> 100 µM
same,TGI,SK-MEL-5 melanoma,25.9 µM
same,TGI,HCC-2998 colon,30.6 µM
same,TGI,HOP-62 NSCLC,58.6 µM
same,TGI,UACC-62 melanoma,48.5 µM
same,TGI,OVCAR-4 ovarian,> 100 µM
same,TGI,OVCAR-8 ovarian,> 100 µM
same,TGI,HOP-92 NSCLC,35.9 µM
same,TGI,COLO 205 colon,39.5 µM
same,TGI,TK-10 renal,70.1 µM
same,TGI,PC-3 prostate,38 µM
same,TGI,SR leukemia,55.4 µM
same,TGI,MDA-N,> 100 µM
same,TGI,A549 NSCLC,50.9 µM
same,TGI,BT-549 breast,32 µM
same,TGI,T-47D breast,36.5 µM
same,TGI,HCT-116 colon,26.9 µM
same,TGI,OVCAR-3 ovarian,59.5 µM
same,TGI,DU-145 prostate,79.8 µM
same,TGI,IGROV1 ovarian,> 100 µM
same,TGI,UACC-257 melanoma,> 100 µM
same,TGI,MOLT-4 leukemia,90.7 µM
same,TGI,SF-295 CNS,> 100 µM
O=C(NNC(=S)Nc1ccccc1)c1cc(-c2ccccc2)nc2ccccc12,TGI,CAKI-1 renal,64.8 µM
same,TGI,SF-539 CNS,38.7 µM
same,TGI,SK-MEL-28 melanoma,59.5 µM
same,TGI,SF-268 CNS,76.3 µM
same,TGI,HCT-15 colon,33 µM
same,TGI,786-0 renal,30 µM
same,TGI,SK-MEL-2 melanoma,31.9 µM
same,TGI,K-562 leukemia,63.2 µM
same,TGI,SNB-75 CNS,71.3 µM
same,TGI,SW-620 colon,49.9 µM
same,TGI,U251 CNS,30.8 µM
same,TGI,NCI-H23 lung,37.9 µM
same,TGI,MCF7 breast,60.8 µM
same,TGI,KM12 colon,> 100 µM
same,TGI,NCI-H460 lung,> 100 µM
same,TGI,OVCAR-5 ovarian,36.3 µM
same,TGI,SNB-19 CNS,> 100 µM
same,TGI,SN12C renal,40.6 µM
same,TGI,NCI-H522 lung,52.6 µM
same,TGI,RXF 393 renal,46.4 µM
same,TGI,ACHN renal,91.9 µM
same,TGI,MDA-MB-435,59.4 µM
same,TGI,NCI/ADR-RES ovarian,52.1 µM
same,TGI,UO-31 renal,31 µM
same,TGI,HT29 colon,> 100 µM
same,TGI,CCRF-CEM leukemia,29.9 µM
same,TGI,MALME-3M melanoma,82.4 µM
same,TGI,HS 578T breast,65.6 µM
same,TGI,A498 renal,28 µM
same,TGI,NCI-H226 lung,63.8 µM
same,TGI,SK-OV-3 ovarian,43.2 µM
same,TGI,SK-MEL-5 melanoma,27 µM
same,TGI,HCC-2998 colon,30.5 µM
same,TGI,HOP-62 NSCLC,33.3 µM
same,TGI,UACC-62 melanoma,39.1 µM
same,TGI,OVCAR-4 ovarian,56.2 µM
same,TGI,OVCAR-8 ovarian,57.6 µM
same,TGI,HOP-92 NSCLC,37.7 µM
same,TGI,COLO 205 colon,36.8 µM
same,TGI,TK-10 renal,> 100 µM
same,TGI,PC-3 prostate,56.4 µM
same,TGI,SR leukemia,32.9 µM
same,TGI,MDA-N,37.9 µM
same,TGI,A549 NSCLC,41.2 µM
same,TGI,BT-549 breast,49.6 µM
same,TGI,RPMI-8226 leukemia,44.9 µM
same,TGI,T-47D breast,50.5 µM
same,TGI,MDA-MB-231 breast,52.5 µM
same,TGI,HCT-116 colon,28.5 µM
same,TGI,M14 melanoma,30.5 µM
same,TGI,OVCAR-3 ovarian,24.4 µM
same,TGI,DU-145 prostate,39.1 µM
same,TGI,IGROV1 ovarian,> 100 µM
same,TGI,UACC-257 melanoma,60.1 µM
same,TGI,MOLT-4 leukemia,32.2 µM
same,TGI,SF-295 CNS,27.4 µM
